The text below walks through data of patent publication US20240382475A1, “Quinazoline Derivative, Or Preparation Method Therefor And Use Thereof” (Zhejiang Hisun Pharmaceutical Co., Ltd., priority 2021, published 2024).

The test system of one experiment is OCI-AML5 cells. Briefly: Inhibition of OCI-AML5 cell proliferation (CellTiter-Glo). The settings on record: Homo sapiens, OCI-AML-5; OCI-AML5 cells (SOS1 N233Y mutation), 120 hours. It counts as cell-based. On the procedure:
The following method was used to determine the influence of the compounds of the present invention on OCI-AML5 cells proliferation. OCI-AML5 cells (containing SOS1 N233Y mutation) were purchased from Nanjing Kebai Biotechnology Co., Ltd. and cultured in MEMα medium containing 10% fetal bovine serum, 100 U penicillin, and 100 μg/mL streptomycin. The activities of the cells were determined by CellTiter-Glo® Luminescent Cell Viability Assay Kit (Promega, Art. No. G7573).
The experimental method was operated according to the steps in the kit instruction, which were briefly described as follows: the test compounds were first dissolved in DMSO to prepare storage solutions of 10 mM, and then diluted with culture mediums to prepare test samples. The final concentrations of the compounds were 10000 nM to 0.15 nM. Cells in logarithmic phase were inoculated in a 96-well cell culture plate with 1,000 cells per well, after cultured overnight in 5% CO2 incubator at 37° C., the test compounds were added to the incubator to continue the culture for 120 hours. After the culture was completed, 50 μL of CellTiter-Glo detection solution was added to each well, shaken for 5 minutes and then stood for 10 minutes. Then, a Luminescence mode was used to read the luminescence values of each well of the samples on a microplate reader.

The next experiment concerns the target T1, KRAS-G12C/SOS1 (Homo sapiens, UniProt Q07889).
T1 construct: purchased Cisbio 63ADK000CB16PEG
T1 sequence (Q07889 1-1333): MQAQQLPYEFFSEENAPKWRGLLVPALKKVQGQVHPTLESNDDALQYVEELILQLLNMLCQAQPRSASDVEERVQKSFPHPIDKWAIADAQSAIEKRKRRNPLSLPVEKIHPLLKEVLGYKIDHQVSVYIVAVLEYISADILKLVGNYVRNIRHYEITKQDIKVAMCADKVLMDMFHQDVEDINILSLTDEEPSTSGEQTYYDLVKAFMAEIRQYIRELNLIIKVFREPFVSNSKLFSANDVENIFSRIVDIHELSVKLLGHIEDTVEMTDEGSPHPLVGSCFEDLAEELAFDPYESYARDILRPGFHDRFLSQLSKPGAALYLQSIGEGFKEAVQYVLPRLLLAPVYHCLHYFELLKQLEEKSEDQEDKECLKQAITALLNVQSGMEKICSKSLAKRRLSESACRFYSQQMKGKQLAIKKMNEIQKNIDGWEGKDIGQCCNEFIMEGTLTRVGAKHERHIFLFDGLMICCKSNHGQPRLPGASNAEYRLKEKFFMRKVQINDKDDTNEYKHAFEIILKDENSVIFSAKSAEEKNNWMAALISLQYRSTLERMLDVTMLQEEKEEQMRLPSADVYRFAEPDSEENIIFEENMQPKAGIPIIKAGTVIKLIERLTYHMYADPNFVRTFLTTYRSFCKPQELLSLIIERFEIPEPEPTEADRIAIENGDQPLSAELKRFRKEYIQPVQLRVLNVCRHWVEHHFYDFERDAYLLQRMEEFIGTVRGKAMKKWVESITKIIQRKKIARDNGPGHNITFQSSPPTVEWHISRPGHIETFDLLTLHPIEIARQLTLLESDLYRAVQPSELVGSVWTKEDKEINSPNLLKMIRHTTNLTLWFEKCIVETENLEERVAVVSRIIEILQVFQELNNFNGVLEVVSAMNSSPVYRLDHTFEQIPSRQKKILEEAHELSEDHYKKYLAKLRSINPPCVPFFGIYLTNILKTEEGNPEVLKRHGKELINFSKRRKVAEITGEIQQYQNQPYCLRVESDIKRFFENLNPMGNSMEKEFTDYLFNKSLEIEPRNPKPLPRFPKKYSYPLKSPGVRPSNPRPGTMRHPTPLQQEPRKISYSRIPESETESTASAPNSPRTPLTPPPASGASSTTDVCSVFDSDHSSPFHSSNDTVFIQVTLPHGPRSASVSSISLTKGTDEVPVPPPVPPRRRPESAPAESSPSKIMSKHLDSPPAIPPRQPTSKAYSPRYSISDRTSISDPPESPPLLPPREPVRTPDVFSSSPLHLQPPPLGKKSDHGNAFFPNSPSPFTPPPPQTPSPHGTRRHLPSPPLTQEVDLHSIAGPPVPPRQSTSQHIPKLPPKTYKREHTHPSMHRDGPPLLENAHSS
The experiment is described as follows: Blocking the binding of KRAS G12C protein to SOS1 (Cisbio KRAS-G12C/SOS1 binding assay kit, TR-FRET). The note with it: Tag1-SOS1 and Tag2-KRAS-G12C, TR-FRET 665/620; read-out: IC50 (nM) Inhibition of KRAS-G12C/SOS1 binding. From the text: The following method was used to determine the abilities of compounds of the invention to block the interaction of SOS1 with the KRAS G12C protein in vitro. KRAS-G12C/SOS1 BINDING ASSAY KITS (Art. No. 63ADK000CB16PEG) from Cisbio was used in this method. Please refer to the kit instruction for detailed experimental operations.
The experimental process can be briefly described as follows: diluent buffer (Art. No. 62DLBDDF) was used to prepare a working solution with a concentration of 5× for Tag1-SOS1 and Tag2-KRAS-G12C protein. The test compounds were dissolved in DMSO to prepare storage solutions of 10 mM, and then the solutions were diluted with dilution buffer for later use. First, 2 μL of the test compound (the final concentrations of the reaction system were 10000 nM-0.1 nM) was added to the well, then 4 μL of Tag1-SOS1 5× working solution and 4 μL of Tag2-KRAS-G12C 5× working solution were added, and the above mixture was centrifuged, mixed, and stood for 15 minutes; then 10 μL of premixed anti-Tag1-Tb^3+ and anti-Tag2-XL665 were added, and the mixture was incubated at room temperature for 2 hours; finally, a microplate reader was used in […] mode to measure the fluorescence intensity of each well emitting wavelengths of 620 nm and […] under the excitation wavelength of 304 nm, and the fluorescence intensity ratio 665/620 in each well was calculated. Compared with the fluorescence intensity ratio of a control group (0.1% DMSO), the percentage inhibition rates of the test compounds at each concentration were calculated, and the IC50 values of the compounds were obtained by performing nonlinear regression analysis with logarithmic values of the compound concentration-inhibition rate by GraphPad Prism 5 software, which was shown in Table 1.
In general terms: Time-resolved FRET reads energy transfer from a long-lived donor to a nearby acceptor.

In the next experiment the test system is p-ERK1/2 in DLD-1 cells. The experiment is described as follows: Inhibition of p-ERK1/2 in DLD-1 cells (Cisbio Advanced phospho-ERK1/2 kit). The note with it: Homo sapiens; DLD-1 cells (KRAS G13D mutation), hEGF 5 nM stimulation; read-out: IC50 (nM) Inhibition on p-ERK½ in DLD-1 cells. It counts as cell-based. The source says: The following method was used to determine the inhibition activities of the compounds of the present invention on p-ERK1/2 in DLD-1 cells. The Advanced phospho-ERK1/2 (Thr202/tyr2O4) kit (Art. No. 64AERPEH) from Cisbio was used in this method. Please refer to the kit instruction for detailed experimental operations. DLD-1 cells (containing KRAS G13D mutation) were purchased from the Cell Resource Center of Shanghai Institutes for Biological Sciences, Chinese Academy of Sciences.
The experimental process can be briefly described as follows: DLD-1 cells were cultured in RPMI 1640 complete medium containing 10% fetal bovine serum, 100 U penicillin, 100 μg/mL streptomycin and 1 mM Sodium Pyruvate. DLD-1 cells were plated in a 96-well plate at 30,000 cells per well, after cultured overnight in 5% CO2 incubator at 37° C. with complete culture medium. The test compounds were dissolved in DMSO to prepare storage solutions of 10 mM, and then diluted with RPMI 1640 basic mediums. 90 μL of RPMI 1640 basic mediums containing the test compounds at the corresponding concentration were added to each well. The final concentrations of the test compounds in the reaction system were 10,000 nM to 0.15 nM, and were placed in a cell culture incubator for 3 hours and 40 minutes. Subsequently, 10 μL of hEGF (purchased from Roche, Art. No. 11376454001) prepared with RPMI 1640 basic medium was added to a final concentration of 5 nM, and placed in the incubator for culturing for 20 minutes. The cell supernatant was discarded, and the cells were washed with PBS on ice-bath. Then, 45 μl of 1× cell phospho/total protein lysis buffer (component of Advanced phospho-ERK1/2 kit) was added to each well for lysis. The 96-well plate was placed on ice for 0.5 hours to lyse, and then the lysate was detected according to the instruction of the Advanced phospho-ERK1/2 (Thr202/tyr2O4) kit. Finally, the microplate reader was used in […] mode to measure the fluorescence intensity of each well emitting wavelengths of 620 nm and […] under the excitation wavelength of 304 nm, and the fluorescence intensity ratio 665/620 in each well was calculated. By comparing with the fluorescence intensity ratio of a control group (0.1% DMSO), the percentage inhibition rates of the test compounds at each concentration were calculated, and the IC50 values of the compounds were obtained by performing nonlinear regression analysis with logarithmic values of the compound concentration-inhibition rate by GraphPad Prism 5 software, which can be seen in Table 3.

The test system of another experiment is NCI-H358 cells. The experiment is described as follows: Inhibition of NCI-H358 cell proliferation under 3D non-anchored conditions (CellTiter-Glo 3D). It counts as cell-based. The note with it: Homo sapiens, NCI-H358 cells (KRAS G12C mutation), 120 hours. On the procedure: The following method was used to determine the effects of the compounds of the present invention on NCI-H358 cell proliferation under three-dimensional (3D) non-anchored conditions. NCI-H358 cells (containing KRAS G12C mutation) were purchased from the Cell Resource Center of Shanghai Institutes for Biological Sciences, Chinese Academy of Sciences, and cultured in RPMI 1640 medium containing 10% fetal bovine serum, 100 U penicillin, 100 μg/mL streptomycin and 1 mM Sodium Pyruvate. The activities of the cells were determined by CellTiter-Glo® 3D Cell Viability Assay Kit (Promega, Art. No. G9683).
The experimental method was operated according to the steps in the kit instruction, which can be briefly described as follows: the test compounds were first dissolved in DMSO to prepare storage solutions of 10 mM, and then diluted with culture mediums to prepare test samples. The final concentrations of the compounds were 10000 nM to 0.15 nM. Cells in logarithmic phase were inoculated in an ultra-low adsorption 384-well cell culture plate (PerkinElmer, #3830) with 2000 cells per well, and the test compounds were added and cultured for 120 hours. After the culture was completed, 30 μL of CellTiter-Glo 3D detection solution was added to each well, shaken for 30 minutes and then stood for 120 minutes. Then, a Luminescence mode was used to read the luminescence values of each well of the samples on a microplate reader. By comparing with the numerical value of a control group (0.1% DMSO), the percentage inhibition rates of the compounds at each concentration were calculated, and the IC50 values of the compounds inhibiting cell proliferation were obtained by performing nonlinear regression analysis with logarithmic values of the compound concentration-inhibition rate by GraphPad Prism 5 software, which can be seen in Table 4.
(In ATP-based viability assays light output follows the ATP content of the culture.)

Regarding `COc1cc2nc(C)nc(N[C@H](C)c3cccc(C#N)c3C)c2cc1N1CCN(C)CC1` [Compound 10, (R)-3-(1-((7-methoxy-2-methyl-6-(4-methylpiperazin-1-yl)quinazolin-4-yl)amino)ethyl)-2-methylbenzonitrile], the IC50 in the experiment with OCI-AML5 cells amounted to 16.8 nM; at KRAS-G12C/SOS1, 36.7 nM.
On the same counts, the results for `COc1cc2nc(C)nc(N[C@H](C)c3cccc(C#N)c3C)c2cc1N1CC(C#N)C1` [Compound 12, (R)-1-(4-((1-(3-cyano-2-methylphenyl)ethyl)amino)-7-methoxy-2-methylquinazolin-6-yl)azetidine-3-carbonitrile] are 23 nM and 88.4 nM.
Consider `COc1cc2nc(C)nc(N[C@H](C)c3cccc(C#N)c3C)c2cc1N1CCN(S(C)(=O)=O)CC1` [Compound 13, (R)-3-(1-((7-methoxy-2-methyl-6-(4-(methylsulfonyl)piperazin-1-yl)quinazolin-4-yl)amino)ethyl)-2-methylbenzonitrile], for which the IC50 in the experiment with OCI-AML5 cells came out at 25.4 nM; in the experiment with p-ERK1/2 in DLD-1 cells it was 73.5 nM.
In the case of `COc1cc2nc(C)nc(N[C@H](C)c3cccc(C#N)c3C)c2cc1N1CCC(N2CCN(C)CC2)CC1` [Compound 15, (R)-3-(1-((7-methoxy-2-methyl-6-(4-(4-methylpiperazin-1-yl)piperidin-1-yl)quinazolin-4-yl)amino)ethyl)-2-methylbenzonitrile], the IC50 in the experiment with OCI-AML5 cells was determined as 3.7 nM; on KRAS-G12C/SOS1, 31.7 nM.
Turning to `COc1cc2nc(C)nc(N[C@H](C)c3cccc(C#N)c3C)c2cc1N1CCC2(CC1)CNC2` [Compound 16c, (R)-3-(1-((7-methoxy-2-methyl-6-(2,7-diazaspiro[3.5]nonan-7-yl)quinazolin-4-yl)amino)ethyl)-2-methylbenzonitrile], the IC50 in the experiment with OCI-AML5 cells came to 13.1 nM; on KRAS-G12C/SOS1, 20.3 nM.
In the case of `COc1cc2nc(C)nc(N[C@H](C)c3cccc(C#N)c3C)c2cc1N1CCC(OC)CC1` [Compound 17, (R)-3-(1-((7-methoxy-6-(4-methoxypiperidin-1-yl)-2-methylquinazolin-4-yl)amino)ethyl)-2-methylbenzonitrile], the values for the IC50 in the experiment with OCI-AML5 cells and with p-ERK1/2 in DLD-1 cells were 10.6 nM and 29.2 nM, respectively.
In the case of `COc1cc2nc(C)nc(N[C@H](C)c3cccc(C#N)c3C)c2cc1N1CCC2(CCN(C(C)=O)CC2)CC1` [Compound 18, (R)-3-(1-((6-(9-acetyl-3,9-diazaspiro[5.5]undecan-3-yl)-7-methoxy-2-methylquinazolin-4-yl)amino)ethyl)-2-methylbenzonitrile], the IC50 in the experiment on OCI-AML5 cells was 2.6 nM; in the experiment on NCI-H358 cells it was 6.9 nM.
As for `COc1cc2nc(C)nc(N[C@H](C)c3cccc(C#N)c3C)c2cc1N1CCN(CCO)CC1` [Compound 20, (R)-3-(1-((6-(4-(2-hydroxyethyl)piperazin-1-yl)-7-methoxy-2-methylquinazolin-4-yl)amino)ethyl)-2-methylbenzonitrile], the IC50 in the experiment on NCI-H358 cells stood at 52.4 nM.
